From article PMC9135230, “Extending the lore of curcumin as dipteran Butyrylcholine esterase (BChE) inhibitor: A holistic molecular interplay assessment” (PLoS ONE, 2022)

How the values were obtained:
[1] = system: T1, Butyrylcholine esterase (BChE); test: Ellman assay with S-butyrylthiocholine iodide in larval lysate; assay type: biochemical, Aedes aegypti
T1 construct: larval lysate (4th instar), native enzyme activity

[2] = system: T1, Butyrylcholine esterase (BChE); test: Ellman assay in larval lysate; Michaelis-Menten and Lineweaver-Burk kinetics; assay type: biochemical, Aedes aegypti

SMILES | IC50 [1] [µM] | IC50 [2] [µM]
CCN(C)C(=O)Oc1cccc([C@H](C)N(C)C)c1 [rivastigmine] | 4.97 | 
COc1cc(/C=C/C(=O)CC(=O)/C=C/c2ccc(O)c(OC)c2)ccc1O [curcumin] |  | 201
